Test results as given in ChEMBL document CHEMBL1134061, “Synthesis and biological evaluations of condensed pyridine and condensed pyrimidine-based HMG-CoA reductase inhibitors” (Bioorg Med Chem Lett, 2001).

Columns and labels:
[1] = biological target: T1, 3-hydroxy-3-methylglutaryl-coenzyme A reductase (Rattus norvegicus, UniProt P51639); assay: In vitro HMG-CoA reductase inhibitory activity to inhibit sterol synthesis in cell free system in rat
T1 sequence (P51639 whole entry): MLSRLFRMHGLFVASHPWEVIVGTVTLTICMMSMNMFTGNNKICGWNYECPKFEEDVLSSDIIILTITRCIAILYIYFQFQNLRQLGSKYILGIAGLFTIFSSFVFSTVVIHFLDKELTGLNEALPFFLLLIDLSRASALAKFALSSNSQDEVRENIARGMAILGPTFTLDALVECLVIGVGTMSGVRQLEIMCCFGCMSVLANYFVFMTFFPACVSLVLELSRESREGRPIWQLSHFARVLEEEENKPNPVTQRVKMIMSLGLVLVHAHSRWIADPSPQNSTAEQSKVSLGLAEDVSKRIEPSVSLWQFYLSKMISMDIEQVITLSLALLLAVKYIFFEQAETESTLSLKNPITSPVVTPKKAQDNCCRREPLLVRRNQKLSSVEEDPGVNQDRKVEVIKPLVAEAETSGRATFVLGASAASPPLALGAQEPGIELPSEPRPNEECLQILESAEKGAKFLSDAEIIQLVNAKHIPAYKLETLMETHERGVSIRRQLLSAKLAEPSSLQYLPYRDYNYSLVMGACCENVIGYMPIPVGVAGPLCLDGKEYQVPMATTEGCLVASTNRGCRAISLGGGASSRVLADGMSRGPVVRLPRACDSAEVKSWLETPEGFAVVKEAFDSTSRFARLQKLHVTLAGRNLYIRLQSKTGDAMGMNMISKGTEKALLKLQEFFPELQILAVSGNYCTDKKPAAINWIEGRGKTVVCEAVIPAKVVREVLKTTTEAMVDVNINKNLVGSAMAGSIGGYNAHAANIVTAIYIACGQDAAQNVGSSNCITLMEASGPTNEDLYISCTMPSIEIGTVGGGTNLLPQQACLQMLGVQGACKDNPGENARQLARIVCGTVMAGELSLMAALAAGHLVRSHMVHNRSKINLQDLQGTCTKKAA

[2] = biological target: T2, 3-hydroxy-3-methylglutaryl-coenzyme A reductase (Rattus norvegicus) (UniProt P51639); assay: In vivo hepatic cholesterol synthesis inhibitory activity in male Sprague-Dawley rat after oral administration at a concentration of 2.0 mg/kg; format: functional, organism-based; design: dose 2 mg/kg
T2 sequence (whole entry): T1 sequence (P51639 whole entry)

[3] = biological target: T2, 3-hydroxy-3-methylglutaryl-coenzyme A reductase (Rattus norvegicus); assay: In vivo hepatic cholesterol synthesis inhibitory activity in male Sprague-Dawley rat after oral administration at a concentration of 0.2 mg/kg; format: functional, organism-based; design: dose 0.2 mg/kg
[4] = biological target: T3, 3-hydroxy-3-methylglutaryl-coenzyme A reductase (Homo sapiens) (UniProt P04035); assay: In vitro HMG-CoA reductase inhibitory activity required to inhibit cellular steroidgenesis in Hep G2 cells (human hepatoma cell line) with pravastatin as reference compound; format: cell-based; settings: HepG2
T3 sequence (whole entry): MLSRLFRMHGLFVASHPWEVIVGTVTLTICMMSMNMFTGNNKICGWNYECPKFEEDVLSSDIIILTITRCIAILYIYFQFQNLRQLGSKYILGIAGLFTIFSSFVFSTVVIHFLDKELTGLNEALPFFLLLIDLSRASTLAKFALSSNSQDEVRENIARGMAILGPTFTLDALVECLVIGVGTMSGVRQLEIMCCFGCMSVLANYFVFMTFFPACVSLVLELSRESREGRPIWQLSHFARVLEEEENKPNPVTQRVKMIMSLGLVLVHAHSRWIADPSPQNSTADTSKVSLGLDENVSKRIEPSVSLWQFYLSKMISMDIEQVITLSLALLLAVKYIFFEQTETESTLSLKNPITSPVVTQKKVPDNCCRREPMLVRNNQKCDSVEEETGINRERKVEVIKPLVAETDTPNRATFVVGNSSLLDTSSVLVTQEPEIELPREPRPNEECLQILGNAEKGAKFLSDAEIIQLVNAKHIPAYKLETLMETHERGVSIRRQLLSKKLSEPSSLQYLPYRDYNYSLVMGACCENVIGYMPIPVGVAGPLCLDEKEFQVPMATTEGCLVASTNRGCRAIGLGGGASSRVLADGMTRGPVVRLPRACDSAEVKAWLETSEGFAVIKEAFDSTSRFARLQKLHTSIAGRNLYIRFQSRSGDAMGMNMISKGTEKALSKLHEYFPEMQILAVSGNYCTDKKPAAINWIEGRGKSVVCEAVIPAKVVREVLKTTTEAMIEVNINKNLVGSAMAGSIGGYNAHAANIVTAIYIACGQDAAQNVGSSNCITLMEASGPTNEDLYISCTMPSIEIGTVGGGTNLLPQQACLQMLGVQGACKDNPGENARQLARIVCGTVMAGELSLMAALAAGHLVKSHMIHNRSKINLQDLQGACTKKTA

[5] = biological target: T2, 3-hydroxy-3-methylglutaryl-coenzyme A reductase (Rattus norvegicus); assay: In vitro rat HMG-CoA reductase inhibitory activity required to inhibit sterol synthesis in cell free system with pravastatin as reference compound

Structure (SMILES)	IC50 [1] [nM]	inhibition [2] [%]	inhibition [3] [%]	Relative potency [4]	Relative potency [5]
CC[C@H](C)C(=O)O[C@H]1C[C@H](O)C=C2C=C[C@H](C)[C@H](CC[C@@H](O)C[C@@H](O)CC(=O)O)[C@H]21 [PRAVASTATIN SODIUM]	4.2	27.8	35.4	–	–
O=C(O)C[C@H](O)C[C@H](O)/C=C/c1c(C2CC2)nc2sccc2c1-c1ccc(F)cc1	–	70.6	38.1	60	229
CC(C)c1nc2c(c(-c3ccccc3)nn2C)c(-c2ccc(F)cc2)c1/C=C/[C@@H](O)C[C@@H](O)CC(=O)O	–	71.1	37	6	21
